One assay addresses T1, human μ opioid receptor (Homo sapiens, UniProt P35372).
T1 construct: purchased NEN, Zaventem, Belgium RB-HOM; host or cells: CHO-K1 cells (recombinant expression, membrane preparation)
As to the kind of experiment: affinity for the human μ opioid receptor, displacement of [3H]-naloxone, CHO-K1 membrane preparation. As to conditions: percentage inhibition of specific binding of [3H]-naloxone. How it is done: Receptor affinity for the human p opioid receptor is determined in a homogeneous batch in microtitre plates. To this end, dilution series of the particular substituted 1-oxa-3,8-diazaspiro[4.5]-decan-2-one compounds to be tested were incubated at room temperature for 90 minutes in a total volume of 250 μl with a receptor membrane preparation (15-40 μg of protein per 250 μl of incubation batch) of CHO-K1 cells, which express the human p opioid receptor (RB-HOM receptor membrane preparation from NEN, Zaventem, Belgium) in the presence of 1 nmol/l of the radioactive ligand [^3H]-naloxone (NET719, from NEN, Zaventem, Belgium) and of 1 mg of WGA-SPA beads (wheat germ agglutinin SPA beads from Amersham/Pharmacia, Freiburg, Germany). The incubation buffer used is 50 mmol/l tris-HCl supplemented with 0.05 wt. % of sodium azide and 0.06 wt. % of bovine serum albumin. Nonspecific binding is determined by additionally adding 25 μmol/l of naloxone. Once the ninety minute incubation time had elapsed, the microtitre plates were centrifuged off for 20 minutes at 1000 g and the radioactivity measured in a β counter (Microbeta-Trilux, from PerkinElmer Wallac, Freiburg, Germany). The percentage displacement of the radioactive ligand from its binding to the human p opioid receptor is determined at a concentration of the substances to be tested of 1 μmol/l and stated as percentage inhibition of specific binding.

In another assay the target is T2, 5-HT transporter (Rattus norvegicus, UniProt P31652).
T2 construct: from tissue; host or cells: rat brain synaptosomes (P2 fraction) from medulla and pons
In words: 5-HT uptake inhibition in rat brain synaptosomes (medulla and pons), [3H]-5-HT. Format: biochemical. Put shortly:
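Freshly isolated P2 synaptosomes taken from rat hypothalamus (NA) or medulla/pons (5-HT) were incubated at room temperature under O2 with [3H]-NA for 7.5 min or [3H]-5-HT for 5 min. Uptake was measured as filter-retained radioactivity by scintillation counting.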

The target in another assay is T3, NA transporter (Rattus norvegicus, UniProt Q63380).
T3 construct: from tissue; host or cells: rat brain synaptosomes (P2 fraction) from hypothalamus
As to the kind of experiment: noradrenalin uptake inhibition in rat brain synaptosomes (hypothalamus), [3H]-NA. The assay is classed as biochemical. The text has this: a) Method for Determining Noradrenalin and 5-HT Uptake Inhibition:
Synaptosomes from rat brain regions are freshly isolated for in vitro studies, as described in the publication “The isolation of nerve endings from brain” by E. G. Gray and V. P. Whittaker, J. Anatomy 96, pages 79-88, 1962. The corresponding literature description is hereby introduced as a reference and is deemed to be part of the disclosure.
The tissue (hypothalamus for the determination of noradrenalin uptake inhibition and medulla and pons for the determination of 5-HT uptake inhibition) is homogenised in ice-cooled 0.32 M sucrose (100 mg of tissue/1 mL) in a glass homogeniser with Teflon pestle using five complete up and down strokes at 840 revolutions/minute.
The homogenate is centrifuged at 4° C. for 10 minutes at 1000 g. After subsequent centrifugation at 17000 g for 55 minutes, the synaptosomes (P2 fraction) are obtained, which are resuspended in 0.32 M […] (0.5 mL/100 mg of original weight).
The particular uptake is measured in a 96-well microtitre plate. The volume is 250 μl and the incubation proceeds at room temperature (approx. 20-25° C.) under an O2 atmosphere.
The incubation time is 7.5 minutes for [^3H]-NA and 5 minutes for [^3H]-5-HT. The 96 samples are then filtered through a Unifilter GF/B® microtitre plate (Packard) and washed with 200 mL of incubated buffer using a “Brabdel MPXRI-96T Cell-Harvester”. The Unifilter GF/B plate is dried for 1 hour at 55° C. The plate is then sealed with a Back Seal® (Packard) and 35 μl of scintillation fluid are added per well (Ultima Gold®, Packard). After sealing with a top Seal® (Packard) and establishing an equilibrium (around 5 hours), radioactivity is determined in a “Trilux 1450 Microbeta” (Wallac).
The quantity of protein used in the above determination corresponds to the values known from the literature, as for example described in “Protein measurement with the folin phenol reagent”, Lowry et al., J. Biol. Chem., 193, 265-275, 1951.
A detailed description of the method may additionally be found in the literature, for example in M. Ch. Frink, H.-H. Hennies, W. Engelberger, M. Haurand and B. Wilffert (1996) Arzneim.-Forsch./Drug Res. 46 (III), 11, 1029-1036.

T1 sequence (P35372 whole entry): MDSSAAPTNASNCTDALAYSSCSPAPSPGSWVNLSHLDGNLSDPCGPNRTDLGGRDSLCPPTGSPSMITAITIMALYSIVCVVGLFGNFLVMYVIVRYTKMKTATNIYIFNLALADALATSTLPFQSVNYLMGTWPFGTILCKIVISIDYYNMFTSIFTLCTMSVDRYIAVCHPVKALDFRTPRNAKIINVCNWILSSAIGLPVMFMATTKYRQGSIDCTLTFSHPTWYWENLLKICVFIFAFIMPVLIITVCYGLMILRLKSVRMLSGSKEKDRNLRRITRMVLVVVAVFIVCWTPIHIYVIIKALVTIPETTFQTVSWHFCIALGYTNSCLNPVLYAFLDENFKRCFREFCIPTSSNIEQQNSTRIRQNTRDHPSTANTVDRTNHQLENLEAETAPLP
T2 sequence (P31652 whole entry): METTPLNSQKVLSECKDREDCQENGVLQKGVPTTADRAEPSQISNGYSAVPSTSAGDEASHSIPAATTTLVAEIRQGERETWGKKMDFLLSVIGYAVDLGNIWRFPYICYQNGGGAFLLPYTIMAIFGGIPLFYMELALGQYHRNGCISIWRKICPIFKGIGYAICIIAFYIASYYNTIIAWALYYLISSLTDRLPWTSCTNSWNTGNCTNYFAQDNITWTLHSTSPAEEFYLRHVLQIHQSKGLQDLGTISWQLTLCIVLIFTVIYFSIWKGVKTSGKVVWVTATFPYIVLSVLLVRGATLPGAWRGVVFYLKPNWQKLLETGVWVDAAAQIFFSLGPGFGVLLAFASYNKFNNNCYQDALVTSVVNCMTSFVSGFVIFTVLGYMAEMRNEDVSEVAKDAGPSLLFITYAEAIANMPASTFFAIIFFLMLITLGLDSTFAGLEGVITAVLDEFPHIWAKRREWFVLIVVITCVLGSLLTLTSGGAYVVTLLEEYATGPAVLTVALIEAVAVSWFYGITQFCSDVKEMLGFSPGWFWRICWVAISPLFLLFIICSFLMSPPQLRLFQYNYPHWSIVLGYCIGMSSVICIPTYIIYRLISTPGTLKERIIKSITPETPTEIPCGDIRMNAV
T3 sequence (Q63380 1-617): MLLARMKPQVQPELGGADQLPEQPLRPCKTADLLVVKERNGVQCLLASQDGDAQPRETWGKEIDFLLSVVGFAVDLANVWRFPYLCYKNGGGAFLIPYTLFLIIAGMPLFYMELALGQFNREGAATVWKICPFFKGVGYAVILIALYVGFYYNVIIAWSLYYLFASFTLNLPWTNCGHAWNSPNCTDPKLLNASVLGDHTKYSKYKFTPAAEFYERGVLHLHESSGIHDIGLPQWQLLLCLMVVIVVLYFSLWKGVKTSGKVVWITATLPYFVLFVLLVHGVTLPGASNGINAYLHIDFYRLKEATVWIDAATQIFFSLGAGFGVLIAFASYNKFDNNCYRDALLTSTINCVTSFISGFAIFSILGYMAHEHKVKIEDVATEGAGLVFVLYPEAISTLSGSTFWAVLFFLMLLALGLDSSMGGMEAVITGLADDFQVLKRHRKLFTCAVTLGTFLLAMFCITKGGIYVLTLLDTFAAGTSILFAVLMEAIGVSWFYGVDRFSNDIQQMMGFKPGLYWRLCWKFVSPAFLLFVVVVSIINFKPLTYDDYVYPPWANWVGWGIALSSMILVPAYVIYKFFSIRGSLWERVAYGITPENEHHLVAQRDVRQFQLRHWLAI

On human μ opioid receptor, `O=C(O)COCC(=O)N1CCC2(CC1)CN(Cc1ccc(F)c(F)c1)C(=O)O2` [Example 64, {2-[3-(3,4-difluorobenzyl)-2-oxo-1-oxa-3,8-diazaspiro[4.5]dec-8-yl]-2-oxoethoxy}acetic acid] gave an inhibition at 1 µM of 48%.

At 5-HT transporter, `CC(C)(CC(=O)O)C(=O)N1CCC2(CC1)CN(Cc1ccc(F)c(F)c1)C(=O)O2` [Example 65, 4-[3-(3,4-difluorobenzyl)-2-oxo-1-oxa-3,8-diazaspiro[4.5]dec-8-yl]-3,3-dimethyl-4-oxobutanoic acid] registered an inhibition at 10 µM of 55%. In addition, at human μ opioid receptor, at 1 µM the inhibition was 56%.

For the compound `CC(CC(=O)O)CC(=O)N1CCC2(CC1)CN(Cc1ccccc1F)C(=O)O2` (stereo not drawn) [Example 67, 5-[3-(2-fluorobenzyl)-2-oxo-1-oxa-3,8-diazaspiro[4.5]dec-8-yl]-3-methyl-5-oxopentanoic acid], the inhibition at 1 µM at human μ opioid receptor stood at 41%.

With `Cc1ccc(CN2CC3(CCN(C(=O)CC(C)(C)CC(=O)O)CC3)OC2=O)cc1` [Example 68, 3,3-dimethyl-5-[3-(4-methylbenzyl)-2-oxo-1-oxa-3,8-diazaspiro[4.5]dec-8-yl]-5-oxopentanoic acid], the inhibition at 1 µM on human μ opioid receptor was 46%.

Consider `CC(CC(=O)O)CC(=O)N1CCC2(CC1)CN(Cc1ccc(F)c(F)c1)C(=O)O2` (stereo not drawn) [Example 69, 5-[3-(3,4-difluorobenzyl)-2-oxo-1-oxa-3,8-diazaspiro[4.5]dec-8-yl]-3-methyl-5-oxopentanoic acid], for which, at human μ opioid receptor, the inhibition at 1 µM stood at 50%.

The compound `O=C(O)COCC(=O)N1CCC2(CC1)CN(Cc1ccc(C(F)(F)F)cc1)C(=O)O2` [Example 70, {2-oxo-2-[2-oxo-3-(4-trifluoromethylbenzyl)-1-oxa-3,8-diazaspiro[4.5]dec-8-yl]ethoxy}acetic acid] came in with an inhibition at 1 µM on human μ opioid receptor of 42%.

Take `CCOc1ccc(C(=O)N2CCC3(CC2)CN(Cc2ccc(C)cc2)C(=O)O3)cc1` [Example 92, 8-(4-ethoxybenzoyl)-3-(4-methylbenzyl)-1-oxa-3,8-diazaspiro[4.5]decan-2-one]: the inhibition at 10 µM at NA transporter stood at 73%; against 5-HT transporter it was 67%. For the same compound, at 1 µM the inhibition on human μ opioid receptor was 70%.

In turn, `COC(=O)CC(=O)N1CCC2(CC1)CN(Cc1ccc(C#N)cc1)C(=O)O2` [Example 93, 3-[3-(4-cyanobenzyl)-2-oxo-1-oxa-3,8-diazaspiro[4.5]dec-8-yl]-3-oxopropionic acid methyl ester] had an inhibition at 1 µM at human μ opioid receptor of 65%.

Compound `N#Cc1ccccc1CN1CC2(CCN(C(=O)c3ccc(F)cc3F)CC2)OC1=O` [Example 94, 2-[8-(2,4-difluorobenzoyl)-2-oxo-1-oxa-3,8-diazaspiro[4.5]dec-3-ylmethyl]benzonitrile] came in with an inhibition at 1 µM at human μ opioid receptor of 62%.

In turn, `Cc1cc(C)cc(CN2CC3(CCN(C(=O)c4cccc(N(C)C)c4)CC3)OC2=O)c1` [Example 95, 8-(3-dimethylaminobenzoyl)-3-(3,5-dimethylbenzyl)-1-oxa-3,8-diazaspiro[4.5]decan-2-one] returned an inhibition at 1 µM at human μ opioid receptor of 75%.

At human μ opioid receptor, `CC(=O)Nc1ccc(C(=O)N2CCC3(CC2)CN(Cc2ccc(F)c(F)c2)C(=O)O3)cc1` [Example 96, N-{4-[3-(3,4-difluorobenzyl)-2-oxo-1-oxa-3,8-diazaspiro[4.5]decane-8-carbonyl]phenyl}acetamide] registered an inhibition at 1 µM of 78%.

Compound `O=C1OC2(CCN(C(=O)c3ccc(Br)cc3)CC2)CN1Cc1ccc(F)cc1` [Example 97, 8-(4-bromobenzoyl)-3-(4-fluorobenzyl)-1-oxa-3,8-diazaspiro[4.5]decan-2-one] returned an inhibition at 1 µM at human μ opioid receptor of 67%.

At human μ opioid receptor, `N#Cc1ccc(CN2CC3(CCN(C(=O)C45CC6CC(CC(C6)C4)C5)CC3)OC2=O)cc1` [Example 98, 4-[8-(adamantane-1-carbonyl)-2-oxo-1-oxa-3,8-diazaspiro[4.5]dec-3-ylmethyl]benzonitrile] had an inhibition at 1 µM of 75%.

As to `O=C1OC2(CCN(C(=O)c3ccc(Cl)cc3)CC2)CN1Cc1cccc(Br)c1` [Example 100, 3-(3-bromobenzyl)-8-(4-chlorobenzoyl)-1-oxa-3,8-diazaspiro[4.5]decan-2-one], 1 µM produced 64% inhibition on human μ opioid receptor.

The compound `O=C1OC2(CCN(S(=O)(=O)Cc3cccc(Cl)c3)CC2)CN1Cc1ccccc1-c1ccccc1` [Example 149, 3-biphenyl-2-ylmethyl-8-(3-chlorobenzylsulfonyl)-1-oxa-3,8-diazaspiro[4.5]decan-2-one] returned an inhibition at 1 µM on human μ opioid receptor of 61%.

The record behind these values is patent US8153795B2, “Substituted 1-oxa-3,8-diazaspiro[4.5]-decan-2-one-compounds and the use thereof for producing drugs” (Gruenenthal GmbH, priority 2005, dated 2012).
